Source: US12162892B2, “CD16a binding agents and uses thereof” (KLEO PHARMACEUTICALS, INC., priority 2018, dated 2024)
Where “and” joins values, the source holds several entries; their conditions need not be identical. Equal entries are not always repeated.

How the values were obtained:
CD3ed = CD3ed (Homo sapiens, UniProt P04234+P07766); test: Biotin ELISA, interaction with various receptors (Example 55); type: binding; details: three replicate values per compound
Description: (§1) Coat ELISA plates (Costar 3922) using Neutravidin (Thermo 31000) at 5 μg/ml (100 μl/well) for 1 hour at 37° C. Plates were washed 4 times with PBST (PBS, 0.05% Tween 20-200 μl, 1 minute/wash) then blocked using 200 μl 5% bovine serum albumin (BSA, Heat Shock, Fraction V-American Bio AB01088-00100) in PBST for 2 hours at 25° C. with moderate shaking. BSA was removed and plates were washed. Biotinylated ligands diluted in PBSTB (PBST+0.1% BSA) were then added (100 μl/well) and incubated for 1 hour at 25° C. with gentle shaking. Ligands were removed and plates were washed. Any remaining unoccupied neutravidin binding sites were blocked by adding 100 μM Biotin (Fisher BP232-1) (100 μl/well) and incubated for 1 hour at 25° C. with gentle shaking. Plates were then washed. […] Protein was removed and plates were washed. Streptavidin-HRP (Invitrogen 434323) diluted 1:5000 in PBSTB was added (100 μl/well) and incubated for 1 hour at 25° C. with gentle shaking. Wash plates. Substrate (Super Signal ELISA Pico Chemiluminescent Substrate-Thermo 37069) was added (100 μl/well) and plates were incubated for 5 minutes at 25° C. with gentle shaking. Luminescence was then measured on the Biotek Synergy H1 microplate reader.
(§2) Using similar methods as Examples 47 or 53, interactions with a number of receptors were measured. In some embodiments, “stock” is antibody only, and “control” is an antibody that went through the same procedure except using DMSO only as opposed to a compound. When contacted with targeting moieties such as antibodies in the Examples, compounds, e.g., I-95, I-96, etc. can react through their reactive groups

CD32b = molecular target: T1, CD32b (Homo sapiens, UniProt P31994); test: as above; type: binding; details: three replicate values per compound
T1 sequence (P31994 43-310): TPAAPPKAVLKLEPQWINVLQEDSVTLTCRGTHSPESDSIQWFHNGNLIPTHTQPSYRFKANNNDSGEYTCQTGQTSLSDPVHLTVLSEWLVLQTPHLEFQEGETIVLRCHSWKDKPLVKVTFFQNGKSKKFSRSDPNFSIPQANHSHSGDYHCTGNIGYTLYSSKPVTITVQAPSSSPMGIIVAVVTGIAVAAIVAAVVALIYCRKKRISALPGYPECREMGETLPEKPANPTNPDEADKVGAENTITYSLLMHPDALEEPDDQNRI
Description: as §1, §2

CD16a158F [1] = molecular target: T2, CD16a158F (Homo sapiens, UniProt P08637); test: as above; type: binding; details: three replicate values per compound
T2 sequence (P08637 17-208 limits assumed): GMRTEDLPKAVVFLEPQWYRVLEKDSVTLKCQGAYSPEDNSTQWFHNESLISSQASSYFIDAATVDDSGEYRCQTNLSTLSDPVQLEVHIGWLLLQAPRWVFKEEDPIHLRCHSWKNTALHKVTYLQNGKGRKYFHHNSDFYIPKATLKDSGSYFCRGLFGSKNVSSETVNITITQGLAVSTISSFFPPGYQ
Description: as §1, §2

CD32a H167 = molecular target: T3, CD32a H167 (Homo sapiens, UniProt P12318); test: as above; type: binding; details: three replicate values per compound
T3 sequence (P12318 36-218 limits assumed): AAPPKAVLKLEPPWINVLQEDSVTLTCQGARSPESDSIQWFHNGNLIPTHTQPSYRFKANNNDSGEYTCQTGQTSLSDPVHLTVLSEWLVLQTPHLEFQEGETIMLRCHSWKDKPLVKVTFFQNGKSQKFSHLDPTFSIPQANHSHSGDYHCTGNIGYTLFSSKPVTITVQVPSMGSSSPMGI
Description: as §1, §2

CD32a-R167 = test: as above; type: binding; details: three replicate values per compound
Description: as §1, §2

CD64 = CD64 (Homo sapiens, UniProt P12314); test: as above; type: binding; details: three replicate values per compound
CD64, sequence (P12314 16-374): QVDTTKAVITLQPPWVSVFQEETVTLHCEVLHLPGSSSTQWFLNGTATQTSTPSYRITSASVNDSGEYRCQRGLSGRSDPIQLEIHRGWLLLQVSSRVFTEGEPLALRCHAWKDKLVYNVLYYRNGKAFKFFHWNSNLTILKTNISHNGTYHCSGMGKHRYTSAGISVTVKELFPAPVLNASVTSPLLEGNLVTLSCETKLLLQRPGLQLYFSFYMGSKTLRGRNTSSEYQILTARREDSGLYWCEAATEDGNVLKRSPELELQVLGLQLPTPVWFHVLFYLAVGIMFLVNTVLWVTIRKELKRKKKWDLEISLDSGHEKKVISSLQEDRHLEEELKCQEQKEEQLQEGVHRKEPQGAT
Description: as §1, §2

CD16a158V [2] = molecular target: T4, CD16a158V (Homo sapiens, UniProt P08637, F176V); test: as above; type: binding; details: three replicate values per compound
T4 sequence (P08637 17-208 F176V): as the sequence (P08637 17-208 limits assumed) above, with F160V counted along it
Description: as §1, §2

[3] = Biotin ELISA, No Protein (Example 55); type: binding; details: three replicate values per compound
Description: as §1, §2

CD16a158F [4] = molecular target: T2, CD16a158F; test: Biotinylated Ligand ELISA Assay; type: binding; set-up: purchased Acro Biosystems CDA-H82E8; details: Biotinylated CD16a protein at 10 nM
Description: as §1

CD16a158V [5] = molecular target: T4, CD16a158V; test: Biotinylated Ligand ELISA Assay; type: binding; details: Biotinylated CD16a protein at 10 nM
Description: as §1

primary monocytes = test: ADCP assay using fresh primary monocytes; type: cell-based, human; details: beads loaded with test compound at 50 uM; 37C for 18 hrs
Description: Biotinylated fluorescent beads (Invitrogen, cat #P35372) were thoroughly mixed by vortexing for 1 min. Ten microliters of supplied bead suspension per treatment type were dispensed in Eppendorf tubes, and washed with 1 ml PBS […], then re-suspended in 500 uL of 1% BSA in PBS. Test compounds were added to bead suspensions to a final concentration of 50 uM, and biotinylated human IgG whole molecule (Rockland 009-0602) final concentration of 20 ug/mL.
Tubes were incubated at room temperature for 1 hr on a rocking platform.
Following incubation, beads were pelleted in a microcentrifuge at 12,000 g for 5 minutes at room temperature. Supernatants were carefully aspirated and beads were washed 5 times by resuspending in 1 ml of PBS 1% BSA, and centrifuging as described above. Finally, beads were resuspended in 500 ul of PBS 1% BSA and used in ADCP assay.
PBMC, freshly isolated from whole blood (Bioreclamation IVT0) using Ficoll-Paque density centrifugation were resuspended in serum-free, supplemented RPMI at 2×10^6 cells/mL.
Ten milliliters of the resulting cell suspension was seeded into 75-cm^2 tissue culture flask (Denville Scientific TC9341) and incubated 2-3 hr at 37° C. 5% CO2 to allow cell adhesion. Following incubation, media was decanted and surface of the flask was carefully washed twice, each time with 10 ml serum-free, supplemented RPMI to remove any residual non-adherent cells. To remove adherent cells, 10 mL of ice-cold 2.5 mM EDTA/PBS solution was added for 10 min on ice. Cells were transferred to a 15-ml conical tube and centrifuge 10 min at 300×g, room temperature, to remove the EDTA/PBS solution. Monocytes were then resuspended in RPMI 10% FCS at 5×10^5 cells/mL to be used in ADCP assay. Monocyte purity was assessed by staining cells with antibodies to human CD3 FITC (Biolegend 300306), CD19 PeCy7 (Biolegend 302216), CD14 BV421 (BD Biosciences, 565283), and CD16 (Biolegend 302046).
Monocytes or THP-1 cells (TIB-202 ATCC) were seeded into 96 well round bottom 96 well plates at the density of 10^5 cells per well in 200 ul, and 10 uL of fluorescent bead suspension prepared as described above was added to each well. Well contents were mixed by pipetting up and down using a multichannel pipet, and plates were incubated at 37C for 18 hrs. After incubation, well contents were transferred into flat bottom black 96 well plates (Costar #3358) and centrifuged for 2 minutes at 300 g to allow for better visualization of the cells. Images were taken using Zoe fluorescent cell imager (Biorad).

CD3ed, sequence (P07766 23-126 limits assumed): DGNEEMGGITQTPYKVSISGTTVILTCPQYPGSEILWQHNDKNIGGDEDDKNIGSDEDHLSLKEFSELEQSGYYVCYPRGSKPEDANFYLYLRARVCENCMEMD
CD3ed, sequence (P04234 22-105 limits assumed): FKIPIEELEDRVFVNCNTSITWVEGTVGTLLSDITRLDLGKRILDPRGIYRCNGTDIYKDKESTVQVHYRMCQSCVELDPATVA

Row | SMILES | Biotin ELISA Results CD3ed (CD3ed) | Biotin ELISA Results CD32b (CD32b) | Biotin ELISA Results CD16a-158F (CD16a158F [1]) | Biotin ELISA Results CD32a-H167 (CD32a H167) | Biotin ELISA Results CD32a-R167 (CD32a-R167) | Biotin ELISA Results CD64 (CD64) | Biotin ELISA Results CD16a-158V (CD16a158V [2]) | Biotin ELISA Results No Protein [3] | Biotinylated Ligand ELISA-CD16a158F Binding (RLU) (CD16a158F [4]) | Biotinylated Ligand ELISA-CD16a158V Binding (RLU) (CD16a158V [5]) | ACDP (primary monocytes)-normalized phagocytosis score (primary monocytes)
1 | O=C(CCCC[C@@H]1SC[C@@H]2NC(=O)N[C@@H]21)NCCOCCOCCOCCOCCOCCOCCOCCOCCNC(=O)c1cnc(N2CCC3(CC2)NC(=O)N(c2ccccc2)C3=O)s1 [Compound I-13, 5-[(3aS,4S,6aR)-2-oxo-hexahydro-1H-thieno[3,4-d]imidazol-4-yl]-N-{26-[(2-{2,4-dioxo-3-phenyl-1,3,8-triazaspiro[4.5]decan-8-yl}-1,3-thiazol-5-yl)formamido]-3,6,9,12,15,18,21,24-octaoxahexacosan-1-yl}pentanamide] | 4252 and 15476 and 72836* | 7721 and 7105 and 9481 | 10817 and 15276 and 9605 | 15516 and 14898 and 8681 | 8032 and 6483 and 10638 | 45845 and 36876 and 49943 | 4673 and 4920 and 4565 | 6804 and 19233 and 14386 |  |  | 
2 | O=C(CCCC[C@@H]1SC[C@@H]2NC(=O)N[C@@H]21)NCCOCCOCCOCCOCCOCCOCCOCCOCCn1cc(-c2ccc(NC(=O)N3CCC(N4CCN(Cc5ccccc5)C4=O)CC3)cc2)nn1 [Compound I-15, N-{4-[1-(26-{5-[(3aS,4S,6aR)-2-oxo-hexahydro-1H-thieno[3,4-d]imidazol-4-yl]pentanamido}-3,6,9,12,15,18,21,24-octaoxahexacosan-1-yl)-1H-1,2,3-triazol-4-yl]phenyl}-4-(3-benzyl-2-oxoimidazolidin-1-yl)piperidine-1-carboxamide] | 7926 and 1921 and 46693* | 10786 and 29882* and 8282 | 34842 and 7323* and 23569 | 5263 and 6063 and 4354 | 11818 and 37679* and 11737 | 43288 and 127129* and 49818 | 3136 and 3515 and 1518 | 3931 and 5958 and 23315* | B (a relative luminescence value (RLU) of 10,000-100,000) | B (a relative luminescence value (RLU) of 10,000-100,000) | 
3 | O=C(CCCC[C@@H]1SC[C@@H]2NC(=O)N[C@@H]21)NCCOCCOCCOCCOCCOCCOCCOCCOCCn1cc(-c2cccc(NC(=O)N3CCC4(CC3)NC(=O)N(Cc3ccccc3)C4=O)c2)nn1 [Compound I-16, N-{3-[1-(26-{5-[(3aS,4S,6aR)-2-oxo-hexahydro-1H-thieno[3,4-d]imidazol-4-yl]pentanamido}-3,6,9,12,15,18,21,24-octaoxahexacosan-1-yl)-1H-1,2,3-triazol-4-yl]phenyl}-3-benzyl-2,4-dioxo-1,3,8-triazaspiro[4.5]decane-8-carboxamide] | 3087 and 4575 and 2480 | 3985 and 5047 and 3438 | 19818 and 20544 and 2349* | 3600 and 3315 and 3632 | 8460 and 31058 and 13897 | 40426 and 53812 and 48052 | 2543 and 5076 and 2414 | 4636 and 2801 and 5055 | D (a relative luminescence value (RLU) of 1-1,000) | D (a relative luminescence value (RLU) of 1-1,000) | B (a normalized phagocytosis score of 1.5-2.0)
4 | O=C(CCCC[C@@H]1SC[C@@H]2NC(=O)N[C@@H]21)NCCOCCOCCOCCOCCOCCOCCOCCOCCn1cc(-c2ccc(OCC(=O)N3CCC(N4CC(=O)N(c5ccccc5)C4=O)CC3)cc2)nn1 [Compound I-19, 5-[(3aS,4S,6aR)-2-oxo-hexahydro-1H-thieno[3,4-d]imidazol-4-yl]-N-{26-[4-(4-{2-[4-(2,4-dioxo-3-phenylimidazolidin-1-yl)piperidin-1-yl]-2-oxoethoxy}phenyl)-1H-1,2,3-triazol-1-yl]-3,6,9,12,15,18,21,24-octaoxahexacosan-1-yl}pentanamide] | 1852 and 1310 and 797 | 2072 and 737 and 1622 | −1097 and −1078 and −689 | 276 and 696 and −362 | 2048 and −50 and 349 | 40706 and 42386 and 41814 | −544 and −988 and −964 | 1266 and 122 and 3990 | D (a relative luminescence value (RLU) of 1-1,000) | D (a relative luminescence value (RLU) of 1-1,000) | 
